Results reported in ChEMBL document CHEMBL1156572, “Synthesis, stereochemical identification, and selective inhibitory activity against human monoamine oxidase-B of 2-methylcyclohexylidene-(4-arylthiazol-2-yl)hydrazones” (J Med Chem, 2008).

Assays:
[1] = biological target: T1, Amine oxidase [flavin-containing] A (Homo sapiens, UniProt P21397); conditions: read-out: INH
T1 sequence (P21397 whole entry): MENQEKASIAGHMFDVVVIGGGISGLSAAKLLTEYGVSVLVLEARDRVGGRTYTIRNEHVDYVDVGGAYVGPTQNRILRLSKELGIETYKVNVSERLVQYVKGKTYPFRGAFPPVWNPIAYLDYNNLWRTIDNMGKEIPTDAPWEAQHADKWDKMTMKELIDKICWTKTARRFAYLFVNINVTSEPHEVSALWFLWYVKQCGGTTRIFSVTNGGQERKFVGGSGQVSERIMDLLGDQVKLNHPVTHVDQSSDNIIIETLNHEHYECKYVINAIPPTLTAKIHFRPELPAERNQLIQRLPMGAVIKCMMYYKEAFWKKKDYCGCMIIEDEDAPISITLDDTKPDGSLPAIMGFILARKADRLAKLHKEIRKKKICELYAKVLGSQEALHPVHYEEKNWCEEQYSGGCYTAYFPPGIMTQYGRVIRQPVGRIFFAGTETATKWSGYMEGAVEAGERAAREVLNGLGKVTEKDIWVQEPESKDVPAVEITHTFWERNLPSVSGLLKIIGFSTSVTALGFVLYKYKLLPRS
Description: Inhibition of human recombinant MAOA before repeated washing at 500 uM

[2] = biological target: T1, Amine oxidase [flavin-containing] A; conditions: read-out: INH; remark: listed apart in the source
Description: Inhibition of human recombinant MAOA after washing at 500 uM by centrifugation-ultrafiltration method

O=C(NCCN1CCOCC1)c1ccc(Cl)cc1 [MOCLOBEMIDE]
inhibition at 500 µM [1]: 86.8%
inhibition at 500 µM [2]: 10.3%
